Results as given in US11872210B2, “Thiol isomerases inhibitors and use thereof” (WESTERN NEW ENGLAND UNIVERSITY, priority 2017, dated 2024).

Legend:
thioredoxin (TRX) = target: T1, thioredoxin (TRX) (Homo sapiens, UniProt P10599); assay: Insulin-based turbidometric assay of thiol isomerase inhibitory activity (thioredoxin); assay type: biochemical; conditions: insulin turbidity assay, 6 point dose curve
T1 construct: purchased AbCam (Cambridge Mass.)
T1 sequence (P10599 1-105): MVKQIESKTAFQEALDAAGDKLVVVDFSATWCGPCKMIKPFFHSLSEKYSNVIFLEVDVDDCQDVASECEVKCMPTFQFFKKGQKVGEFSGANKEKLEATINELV
Excerpt: Recombinant thiol isomerases were purchased from AbCam (Cambridge Mass.), recombinant insulin (bovine), bacitracin, dithiothreitol (DTT) buffers and all other chemicals were purchased from Sigma Aldrich (St. Louis, Mo.; while 384 well clear bottom plates were purchased from Corning (Corning, N.Y.).
The catalytic reduction of insulin by thiol isomerases in the presence of DTT results in aggregation of insulin chains. The turbidity of insulin aggregation can be monitored spectrophotometrically at an optical density (OD) at 650 nm. This approach has been used by multiple groups to identify thiol isomerase inhibitors in either a kinetic or endpoint fashion. A final concentration of either 10 μg/mL PDI, 30 μg/mL ERp5, 10 μg/mL ERp72 or 10 μg/mL thioredoxin, 125 μM insulin and 2 mM ethylenediaminetetraacetic acid (EDTA) in 30 μL of 100 mM potassium phosphate buffer was added to each experimental well plate, while negative control wells lacked any thiol isomerase. Lead compounds were diluted in a 6 point dose curve and the turbidity of insulin aggregation was measured kinetically each minute for 75 minutes using a Spectramax M3 plate reader (Molecular Devices, Sunnyvale, Calif.) Specificity assay utilized the insulin turbidity assay as well.

[1] = tested on: integrin αIIbβ3 on washed platelets; assay: Integrin activation (PAC-1 antibody binding) by flow cytometry; assay type: cell-based, human; conditions: CRP-XL stimulated
Protocol: Human Platelet Preparation: 50 mL of blood was drawn from drug free, consenting individuals, into a syringe containing 5 mL sodium citrate (4% w/v) and 7.5 mL warmed ACD (85 mM sodium citrate, 71 mM citric acid and 110 mM glucose). Blood was centrifuged at 102 g for 20 minutes to obtain platelet-rich plasma (PRP), which was then decanted and 104 prostacyclin (PGI2 125 μg/mL, solubilized in ethanol) added. Platelets were pelleted by centrifugation at 1413 g for 10 minutes, platelet poor plasma was discarded and the pellet resuspended in 25 mL Tyrode's-HEPES buffer (134 mM NaCl, 2.9 mM KCl, 0.34 mM Na2HPO4, 12 mM NaHCO3, 20 mM HEPES, 1 mM MgCl2 and 5 mM glucose pH 7.3), 3 mL of ACD and 10 μL PGI2 were added and then following centrifugation at 1413 g for 10 minutes, the platelet pellet was re-suspended to the appropriate cell density using Tyrode's buffer. […]
Flow Cytometry: 5 μL platelets (2×10^8 cells/mL) was added to 42 μL HEPES-buffered saline with 1 mM Ca2+. […] Samples were then fixed with 450 μL of 0.2% (v/v) paraformaldehyde and analyzed on an accuri C6 flow cytometer (BD Biosciences, UK), with the threshold set to 20,000. Platelet populations were gated and 10,000 events recorded.
Washed platelets (2×10^8 cells/mL) were incubated with vehicle, zafirlukast (0.6-10 μM) or montelukast (0.6-10 μM) for 5 minutes. […] Data were analyzed using one-way ANOVA, n=3.

Tail bleeding assay = assay type: in vivo, C57/BL6 mice; conditions: infused to circulating concentration of 20 μM, 5 minutes prior to tail biopsy
Protocol: The effects of zafirlukast on thrombus formation in mice was determined following laser injury of cremaster muscle arterioles, and observed by intravital microscopy. Male C57/BL6 mouse platelets were labelled with DyLight 649-conjugated anti-GPIb antibody (0.2 μg/g body weight) and either vehicle or zafirlukast (ZFL) infused (at a volume required to achieve a circulating concentration of 20 μM). Following laser injury, images were recorded for 5 minutes. […] FIG. 6 illustrates the effects of ZFL on bleeding were determined by tail bleeding assay. Vehicle or ZFL (at a volume required to achieve a circulating concentration of 20 μM) were infused into the femoral veins of C57/BL6 mice, 5 minutes prior to tail biopsy. 0.5 cm of tail tip was excised and blood collected in phosphate-buffered saline (PBS), and time to cessation of bleeding was recorded. […] Graphs represent mean±SEM, n=10 per treatment, data analyzed by Student's T test, ***p<0.005.

HCT116 cells = assay: PrestoBlue cell proliferation assay, HCT116; assay type: cell-based, human; conditions: HCT116, colon cancer, 24 hours treatment
Protocol: Cells were plated at 6,000 cells/well in a 96-well plate and treated with the indicated concentration of zafirlukast 24 hours later. Cells were allowed to grow for an additional 24 hours before alterations in growth were measured by the PrestoBlue cell proliferation assay in triplicate. Fluorescence readings with an excitation at 570 nm and emission of 600 nm were collected and treated samples were converted to a percentage of the untreated controls. OVCar8 (human ovarian cancer cell line), HCT116 (human colon cancer), HeLa (cervical cancer cell line) and MDA-MB-231 (breast cancer cell line) cell lines were examined for their ability to inhibit cell proliferation. […] Table 1 illustrates the results of a cell proliferation assay testing zafirlukast against OVCar8 cells, HCT116 cells, HeLa cells and MDA-MB-231 cells.

[2] = tested on: EGFR activation and downstream signaling (STAT3 phosphorylation); assay: Western blot of EGFR signaling in HCT116 cells; assay type: cell-based, human; conditions: 24 hours
Protocol: HCT116 (human colon cancer) cells were incubated with drug for 24 hours and total cellular extracts prepared. Protein levels were normalized, protein loaded on SDS-polyacrylamide gels and then electrophoresed before transferring to a PVDF membrane. The membranes were probed with primary antibodies of interest, followed by secondary antibodies conjugated with horseradish peroxidase.

platelets = assay: α-granule secretion of platelets; assay type: cell-based, human; conditions: 0.1 μM-10 μM
Protocol: Platelet responses in the presence of zafirlukast, (0.1 μM-10 μM) were tested in a range of platelet functional assays including aggregation, granule secretion and spreading studies.
Flow Cytometry: 5 μL platelets (2×10^8 cells/mL) was added to 42 μL HEPES-buffered saline with 1 mM Ca2+. To this, 0.5 μL zafirlukast (0.6 μM-10 μM) or montelukast (0.6 μM-10 μM) or vehicle (0.1% (v/v) DMSO) was added and incubated for 5 minutes. 1 μL anti-human CD62p (1:500 dilution) and 1 μL anti-fibrinogen FITC conjugate (1:500 dilution) or 2 μL of anti-PAC-1 antibody were added to samples. Platelets were treated with 5 μL CRP-XL (1 ug/mL) or 5 μL Tyrode's for 20 minutes in the dark. Samples were then fixed with 450 μL of 0.2% (v/v) paraformaldehyde and analyzed on an accuri C6 flow cytometer (BD Biosciences, UK), with the threshold set to 20,000. Platelet populations were gated and 10,000 events recorded.

inhibitory range on TRX (thioredoxin (TRX)): 10 to 300 µM
bleeding time (time to cessation of bleeding), in words (Tail bleeding assay): no change in bleeding time
IC50 (HCT116 cells): 5 µM
IC50 (HCT116 cells; Homo sapiens, HCT-116, 24 h): 5 to 10 µM
Compound: COc1cc(C(=O)NS(=O)(=O)c2ccccc2C)ccc1Cc1cn(C)c2ccc(NC(=O)OC3CCCC3)cc12 [zafirlukast, 4-(5-cyclopentyloxycarbonylamino-1-methylindol-3-ylmethyl)-3-methoxy-N-o-tolylsulfonylbenzamide]
cell-surface bound PAC-1 antibody (fluorescence) ([1]; 10 μM, vehicle 1623 Au): 748.5 Au
inhibition at 10 µM ([1]; Homo sapiens, Platelet, PAC-1 binding): 54%
inhibition of EGFR activation and downstream signaling (STAT3 phosphorylation), in words [2]: almost complete inhibition
α-granule secretion (in words) (platelets): inhibit
